Data as given in ChEMBL document CHEMBL1806385, “Discovery of potent, soluble and orally active TRPV1 antagonists. Structure-activity relationships of a series of isoxazoles” (Bioorg Med Chem Lett, 2011).
pIC50: −log10 of the molar value. Values after ≈ are worked out from the molar mass of the structure shown.

Columns and labels:
physchem = conditions: phosphate buffered saline, pH 7.4
Description: Intrinsic solubility of the compound in phosphate buffered saline at pH 7.4 by shake-flask method

[1] = molecular target: Transient receptor potential cation channel subfamily V member 1 (Homo sapiens, UniProt Q8NER1)
Chain of Transient receptor potential cation channel subfamily V member 1 (Q8NER1 whole entry): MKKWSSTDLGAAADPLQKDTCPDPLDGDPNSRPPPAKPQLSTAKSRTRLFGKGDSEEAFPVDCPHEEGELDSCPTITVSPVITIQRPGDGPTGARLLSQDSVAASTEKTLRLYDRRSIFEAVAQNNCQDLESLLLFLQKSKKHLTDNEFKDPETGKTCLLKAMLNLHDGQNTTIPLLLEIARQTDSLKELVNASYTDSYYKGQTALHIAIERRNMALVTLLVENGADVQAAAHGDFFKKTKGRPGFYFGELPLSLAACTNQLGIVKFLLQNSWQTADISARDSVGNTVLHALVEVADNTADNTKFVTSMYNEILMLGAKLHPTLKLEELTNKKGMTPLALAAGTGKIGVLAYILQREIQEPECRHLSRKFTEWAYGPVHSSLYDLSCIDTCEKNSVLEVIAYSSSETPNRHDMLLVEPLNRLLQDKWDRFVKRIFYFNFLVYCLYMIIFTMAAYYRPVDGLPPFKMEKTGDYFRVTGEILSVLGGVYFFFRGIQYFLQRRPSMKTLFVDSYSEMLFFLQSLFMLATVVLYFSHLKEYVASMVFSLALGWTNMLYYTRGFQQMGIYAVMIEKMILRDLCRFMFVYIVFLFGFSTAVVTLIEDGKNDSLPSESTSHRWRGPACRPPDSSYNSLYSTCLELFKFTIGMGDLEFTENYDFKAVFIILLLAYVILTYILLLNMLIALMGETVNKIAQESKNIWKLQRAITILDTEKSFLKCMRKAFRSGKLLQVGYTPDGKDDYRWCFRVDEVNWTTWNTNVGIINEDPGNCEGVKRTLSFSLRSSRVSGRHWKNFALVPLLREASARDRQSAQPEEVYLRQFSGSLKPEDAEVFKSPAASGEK
Description: Antagonist activity at human TRPV1 expressed in CHO cells assessed as inhibition of calcium flux by FLIPR assay

[2] = Intrinsic clearance in rat liver microsomes; format: ADME, Microsome
[3] = Plasma protein binding in Wistar rat; format: ADME, cell-free; conditions: read-out: PPB (converted)
[4] = Plasma protein binding in human; format: ADME, cell-free; conditions: read-out: PPB (converted)
[5] = Intrinsic clearance in human liver microsomes; format: ADME, Microsome
[6] = Intrinsic clearance in rat hepatocytes assessed per 10^6 cells; format: ADME, cell-based, Liver, Hepatocyte
Rattus norvegicus = assay: Antihyperalgesic activity in po dosed rat capsaicin hargreaves model assessed as reversal of capsaicin-induced thermal hyperalgesia measured by paw withdrawal latency administered 2 hrs before capsaicin challenge; format: functional
[7] = AUClast in po dosed rat; format: ADME, organism-based; parameters: route oral, time 0 - last; conditions: plasma
[8] = Intrinsic clearance in human hepatocytes assessed per 10^6 cells; format: ADME, cell-based, Liver, Hepatocyte

| Structure (SMILES) | solubility thermodynamic (physchem) [µg/mL] | pIC50 [1] | also measured |
| --- | --- | --- | --- |
| CCOc1cc(Cl)ccc1-c1onc(C(=O)NC2CCOCC2)c1C | < 1 | 7.90 |  |
| O=C(N[C@@H]1CCC[C@H](O)C1)c1noc(-c2ccc(Cl)cc2)c1Cl | 3 (≈ 8.45 µM) | 8.30 |  |
| CC(O)c1c(C(=O)NC2CCCC2)noc1-c1ccc(C(F)(F)F)cc1 (stereo not drawn) | < 1 | 6.00 |  |
| O=C(N[C@@H]1CCC[C@H](O)C1)c1noc(-c2ccc(Cl)c(F)c2)c1Cl | 2 (≈ 5.36 µM) | 9.20 |  |
| O=C(N[C@@H]1CCC[C@H](O)C1)c1onc(-c2ccc(Cl)c(F)c2)c1Cl | 11 (≈ 29.5 µM) | 8.50 |  |
| CCOc1cc(Cl)ccc1-c1onc(C(=O)N[C@@H]2CCC[C@H](O)C2)c1C | 27 (≈ 71.3 µM) | 7.90 |  |
| O=C(N[C@@H]1CCC[C@H](O)C1)c1noc(-c2ccc(C(F)(F)F)c(F)c2)c1Cl | < 1 | 9.20 |  |
| CC(C)(O)c1c(C(=O)NC2CCCC2)noc1-c1ccc(C(F)(F)F)cc1 | < 1 | 5.30 |  |
| Cc1c(C(=O)N[C@@H]2CCC[C@H](O)C2)noc1-c1ccc(C(F)(F)F)c(F)c1 | 4 (≈ 10.4 µM) | 8.70 |  |
| CC[C@H](CO)NC(=O)c1noc(-c2ccc(C(F)(F)F)c(F)c2)c1CO | 31 (≈ 82.4 µM) | 6.80 |  |
| O=C(NC1CCCC1)c1noc(-c2ccc(C(F)(F)F)cc2)c1CO | 1 (≈ 2.82 µM) | 6.80 |  |
| CC[C@H](CO)NC(=O)c1noc(-c2ccc(C(F)(F)F)cc2)c1CO | 66 (≈ 184 µM) | 5.80 |  |
| CC(C)NCc1c(C(=O)N[C@H](C)C(C)C)noc1-c1ccc(C(F)(F)F)cc1 | 12 (≈ 30.2 µM) | 6.10 |  |
| O=C(N[C@@H]1CCC[C@H](O)C1)c1noc(-c2ccc(C(F)(F)F)cc2)c1Cl | < 1 | 9.30 | microsomal CLint [2]: < 12 µL/min/mg; fraction unbound [3]: 0.007; fraction unbound [4]: 0.01; microsomal CLint [5]: < 12 µL/min/mg |
| O=C(NC1CCC(O)CC1)c1noc(-c2ccc(C(F)(F)F)cc2)c1CO (stereo not drawn) | 70 (≈ 182 µM) | 5.80 |  |
| O=C(N[C@@H]1CCC[C@H](O)C1)c1onc(-c2ccc(F)cc2)c1Cl | 47 (≈ 139 µM) | 6.10 |  |
| CC(C)[C@H](C)NC(=O)c1noc(-c2ccc(C(F)(F)F)c(F)c2)c1CO | 1.4 (≈ 3.74 µM) | 7.70 |  |
| CC(C)NCc1c(C(=O)N[C@@H]2CCC[C@H](O)C2)noc1-c1ccc(C(F)(F)F)cc1 |  |  | hepatocyte CLint [6]: < 6 µL/min/1e6 cells; MED (Rattus norvegicus): 30 µmol/kg; AUC(0-t) [7]: 2730 ng·h/mL; hepatocyte CLint [8]: < 6 µL/min/1e6 cells |
| O=C(NC1CCCC1)c1noc(-c2ccc(C(F)(F)F)c(F)c2)c1CO | 73 (≈ 196 µM) | 7.40 |  |
| CC(C)NCc1c(C(=O)N[C@@H](C)C(C)C)noc1-c1ccc(C(F)(F)F)cc1 | 4 (≈ 10.1 µM) | 7.20 |  |
| CCOc1cc(Cl)ccc1-c1onc(C(=O)NC2CCC(O)CC2)c1C (stereo not drawn) | 28 (≈ 73.9 µM) | 6.70 |  |
| CC(C)[C@H](C)NC(=O)c1noc(-c2ccc(C(F)(F)F)cc2)c1CO | 1.5 (≈ 4.21 µM) | 6.90 |  |
| CC(C)NCc1c(C(=O)NC2CCCC2)noc1-c1ccc(C(F)(F)F)cc1 | 13 (≈ 32.9 µM) | 6.50 |  |
| O=C(N[C@@H]1CCC[C@H](O)C1)c1noc(-c2ccc(C(F)(F)F)cc2)c1CO | 73 (≈ 190 µM) | 7.10 | microsomal CLint [2]: 27 µL/min/mg; fraction unbound [3]: 0.091; fraction unbound [4]: 0.081; microsomal CLint [5]: < 12 µL/min/mg |
| CN(C)C(=O)c1c(C(=O)NC2CCCC2)noc1-c1ccc(C(F)(F)F)cc1 | < 1 | 5.70 |  |
| CCNC(=O)c1c(C(=O)NC2CCCC2)noc1-c1ccc(C(F)(F)F)cc1 | 1.6 (≈ 4.05 µM) | 5.30 |  |
| O=C(NC1CCCC1)c1noc(-c2ccc(C(F)(F)F)cc2)c1C(=O)O | 72 (≈ 195 µM) | 5.80 |  |
| O=C(N[C@@H]1CCC[C@H](O)C1)c1noc(-c2ccc(F)cc2)c1Cl | 38 (≈ 112 µM) | 7.30 |  |
| O=C(NC1CCOCC1)c1noc(-c2ccc(C(F)(F)F)cc2)c1CO | 35 (≈ 94.5 µM) | 5.50 |  |
